Data: US11738037B2, “Agent for preventing or improving decline in brain function” (KYOWA HAKKO BIO CO., LTD., priority 2012, dated 2023)

Legend:
Assay type in all cases: in vivo, C57BL/6J mice
[1] = tested on: hippocampal nerve cells (CA1 pyramidal cell layer); assay: Evaluation of viability of hippocampal nerve cells; conditions: oral for 12 days, compared to Group 2, FIG. 4
Description: (§1) Experimental Example: 10-week-old male C57BL/6J mice (CLEA Japan, Inc. approximately 25 g of average body weight per mouse) were preliminarily acclimated for 1 week, and provided for experiments. L-citrulline and citicoline were obtained from KYOWA HAKKO BIO CO., LTD.
(§2) C57BL/6J mice were divided into a sham-operation group (Group 1) and a bilateral common carotid arteries occlusion group, which was performed under halothane anesthesia for 20 minutes. […] After evaluating learning memory functions, the hippocampus was removed and viability of hippocampal nerve cells was evaluated.
Twelve days after bilateral occlusion of the common carotid arteries, mice were anesthetized with pentobarbital sodium, and perfused with ice-cold phosphate buffer (PBS, pH 7.4) until the blood in the body was completely removed. […] Surviving and non-surviving nerve cells in the CA1 pyramidal cell layer of the hippocampus were counted at 1.4 to 1.8 mm posterior to bregma, and cells with PI-positive nuclei and typical morphological characteristics were defined as surviving nerve cells. The cell viability was calculated from a ratio to the average number of surviving nerve cells in Group 1.

[2] = tested on: bilateral common carotid arteries occlusion mice; assay: Novel object recognition test; conditions: oral, after 7 days of administration, novel vs familiar object, FIG. 3
Description: as §1
(§3) C57BL/6J mice were divided into a sham-operation group (Group 1) and a bilateral common carotid arteries occlusion group, which was performed under halothane anesthesia for 20 minutes. One day after reperfusion, the bilateral common carotid arteries occlusion group was further divided into a distilled water-treated group (Group 2), a low-dose L-citrulline-treated group (40 mg/kg: Group 3), a low-dose citicoline-treated group (40 mg/kg: Group 4), a high-dose L-citrulline-treated group (100 mg/kg: Group 5), a high-dose citicoline-treated group (100 mg/kg: Group 6), and a combination treatment group of a low dose of L-citrulline and a low dose of citicoline (each 40 mg/kg: Group 7). […] After evaluating learning memory functions, the hippocampus was removed and viability of hippocampal nerve cells was evaluated.
The novel object recognition test was performed after mice were individually acclimated to the open field apparatus (35×25×35 cm) for 2 days. […] A ratio of the frequency of exploring the familiar or novel object over the total exploration frequency was calculated, and used as an index for visual recognition memory.

[3] = tested on: bilateral common carotid arteries occlusion mice; assay: Passive avoidance test; conditions: oral, after 7 days of administration, compared to Group 2, FIG. 2
Description: as §1, §2
The passive avoidance test was performed using a box consisting of dark (25×25×25 cm) and light compartments (14×10×25 cm) and being equipped with an electrical stimulation apparatus at the bottom of the dark compartment. […] Twenty four hours after training, the mouse was placed again in the light compartment, and the latency time spent in the light compartment was recorded with a maximum latency of 300 seconds.

[4] = tested on: bilateral common carotid arteries occlusion mice; assay: Y-maze test (spontaneous alternation behavior); conditions: oral, after 7 days of administration, FIG. 1
Description: as §1
as §3, with “7). Each sample was orally administered for 12 days.” for “7).”
In the Y-maze test, a Y-maze apparatus with three arms (50×16×32 cm) was used. […] The sequence of arm entries was recorded. The number of entries into each arm was counted during the measurement time, which was defined as the total number of entries. […]

With `NC(=O)NCCC[C@H](N)C(=O)O` [L-citrulline] the “viability of hippocampal nerve cells” value ([1]; high dose 100 mg/kg) was “nerve cell-protecting effect”, the “viability of hippocampal nerve cells” value ([1]; low dose 40 mg/kg) was “viability of hippocampal nerve cells cannot be improved” and the “frequency of exploring the novel object” value ([2]; high dose 100 mg/kg) was “remarkably improved effect of memory behavior”. The “frequency of exploring the novel object” value ([2]; low dose 40 mg/kg) was “frequency of exploring the novel object cannot be increased”, the “time spent in the light compartment (Latency time)” value ([3]; high dose 100 mg/kg) was “improved effect of memory behavior” and the “time spent in the light compartment (Latency time)” value ([3]; low dose 40 mg/kg) was “latency time cannot be improved”. For the same compound, the “spontaneous alternation behavior rate (Alternation)” value ([4]; high dose 100 mg/kg, compared to Group 2) was “improved effect of memory behavior” and the “spontaneous alternation behavior rate (Alternation)” value ([4]; low dose 40 mg/kg, compared to distilled water-treated occlusion group (Group 2)) was “Alternation cannot be improved”.
